The target in the test is α7-subtype of nicotinic receptors (Rattus norvegicus, UniProt Q05941). Nature of the test: biochemical. Format: binding.

Structures can show the parent of a compound that is named as a salt.

Sequence of α7-subtype of nicotinic receptors (Q05941 23-502): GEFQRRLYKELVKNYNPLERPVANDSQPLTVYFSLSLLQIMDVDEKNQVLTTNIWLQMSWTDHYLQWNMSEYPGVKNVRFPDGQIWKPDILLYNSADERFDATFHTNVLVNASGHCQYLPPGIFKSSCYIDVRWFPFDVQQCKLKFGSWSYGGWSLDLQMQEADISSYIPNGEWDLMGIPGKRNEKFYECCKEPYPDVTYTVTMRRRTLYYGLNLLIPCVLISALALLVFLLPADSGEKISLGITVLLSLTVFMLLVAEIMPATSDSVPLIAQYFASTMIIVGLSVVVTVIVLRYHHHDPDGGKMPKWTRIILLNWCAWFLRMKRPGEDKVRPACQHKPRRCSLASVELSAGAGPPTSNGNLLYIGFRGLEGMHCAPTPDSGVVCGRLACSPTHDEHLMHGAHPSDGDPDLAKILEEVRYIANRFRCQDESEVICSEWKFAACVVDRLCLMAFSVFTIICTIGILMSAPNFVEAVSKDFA

On to `c1ccc2c(c1)CC(c1nnc(N3CCN4CCC3CC4)o1)C2` [Compound 1, 4-(5-Indan-2-yl-[1,3,4]oxadiazol-2-yl)-1,4-diaza-bicyclo[3.2.2]nonane fumaric acid salt], for which the IC50 (commonly the point on the concentration scale where inhibition reaches its midpoint) worked out at 610 nM. In turn, `c1ccc2c(c1)OC(c1nnc(N3CCN4CCC3CC4)o1)O2` [Compound 2, 4-(5-Benzo[1,3]-dioxol-2-yl-[1,3,4]oxadiazol-2-yl)-1,4-diaza-bicyclo[3.2.2]nonane fumaric acid salt] registered an IC50 of 750 nM. This IC50 and that of the molecule before are within 1.5-fold of each other. `c1ccc2c(c1)OCC(c1nnc(N3CCN4CCC3CC4)o1)O2` (stereo not drawn) [Compound 3, 4-[5-(2,3-Dihydro-benzo[1,4]dioxin-2-yl)-[1,3,4]oxadiazol-2-yl]-1,4-diaza-bicyclo[3.2.2]nonane fumaric acid salt] showed an IC50 of 1800 nM. Against the preceding molecule, the IC50 is about 2.4-fold higher.

The values are drawn from patent US20110263577A1 (priority 2008, published 2011).
